Data published in patent publication US12281149B2, “Modulators of G-protein coupled receptors” (priority 2021, dated 2025).
*1 amine or outer side, *2 acyl side, *3 side chain or, on linkers, in order; H or OH if unused. Where a SMILES comes first, the peptide text is derived from it. Side-chain parts run from the residue outwards. [ ]: non-standard residue; d: D form. The star is where a group is joined. C20 diacid = O=C(O)CCCCCCCCCCCCCCCCCCC(=O)*; γGlu = O=C(O)[C@H](CCC(=O)[*:2])N[*:1]; X35 = N#Cc1cc(F)cc(C2(C(=O)*)CCCC2)c1; X81 = CCC(CC)(C(=O)*)c1cc(F)cc(C#N)c1; X69 = CC(C)(C(=O)*)c1c(F)cccc1F; X28 = O=C(C1(n2cccn2)CCNCC1)*; X76 = CC(C)(C(=O)*)c1cncnc1; AEEA = NCCOCCOCC(=O)O; Aib = CC(C)(N)C(=O)O; βAla = NCCC(=O)O

Key:
Format in all cases: cell-based
GIP receptor [1] = target: T1, GIP receptor (Homo sapiens, UniProt P48546); assay: PathHunter β-arrestin assay, GIP receptor; design: host or cells: PathHunter CHO-K1 GIPR β-Arrestin Cell Line; conditions: β-arrestin-2 recruitment, PathHunter CHO-K1 GIPR β-Arrestin Cell Line, 90 min at 37° C.; normalized to GIP; read-out: GIPR β Arrestin EC50
T1 sequence (P48546 22-466): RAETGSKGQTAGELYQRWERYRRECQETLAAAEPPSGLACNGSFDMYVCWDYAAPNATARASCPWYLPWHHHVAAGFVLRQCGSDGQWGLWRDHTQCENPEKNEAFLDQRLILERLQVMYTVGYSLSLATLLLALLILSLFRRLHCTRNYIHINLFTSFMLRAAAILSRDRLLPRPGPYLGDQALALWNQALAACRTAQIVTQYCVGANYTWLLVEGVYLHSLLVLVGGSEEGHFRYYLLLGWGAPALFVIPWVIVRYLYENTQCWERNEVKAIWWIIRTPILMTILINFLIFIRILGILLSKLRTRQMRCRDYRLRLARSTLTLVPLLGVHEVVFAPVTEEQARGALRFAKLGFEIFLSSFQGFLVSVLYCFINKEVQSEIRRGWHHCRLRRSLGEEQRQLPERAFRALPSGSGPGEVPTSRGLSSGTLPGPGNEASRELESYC

GLP-1 receptor [2] = target: T2, GLP-1 receptor (Homo sapiens, UniProt P43220); assay: HitHunter cAMP assay, GLP-1 receptor; conditions: for EC50: CHO cells stably expressing human GLP-1 receptor, cAMP accumulation, 30 min, read-out: EC50 GLP-1R; for Emax: CHO cells, cAMP, normalized to maximum signal from GLP-1 (high) and DMSO (low), read-out: Emax GLP-1R
T2 sequence (P43220 24-463): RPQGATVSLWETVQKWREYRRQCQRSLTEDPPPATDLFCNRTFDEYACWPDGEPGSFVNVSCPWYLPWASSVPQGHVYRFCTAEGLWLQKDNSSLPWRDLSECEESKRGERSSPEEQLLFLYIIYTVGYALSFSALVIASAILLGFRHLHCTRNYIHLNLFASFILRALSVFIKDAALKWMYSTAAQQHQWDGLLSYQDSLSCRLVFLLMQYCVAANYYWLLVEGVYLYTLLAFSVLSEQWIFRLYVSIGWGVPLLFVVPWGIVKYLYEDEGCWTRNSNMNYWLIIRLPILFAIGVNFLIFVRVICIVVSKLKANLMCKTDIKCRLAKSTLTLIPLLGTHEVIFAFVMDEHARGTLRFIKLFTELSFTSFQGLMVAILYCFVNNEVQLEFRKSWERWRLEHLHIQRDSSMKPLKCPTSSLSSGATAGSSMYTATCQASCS

GLP-1 receptor [3] = target: T2, GLP-1 receptor; assay: PathHunter β-arrestin assay, GLP-1 receptor; design: host or cells: PathHunter CHO-K1 GLP1R β-Arrestin Cell Line; conditions: β-arrestin-2 recruitment, PathHunter CHO-K1 GLP1R β-Arrestin Cell Line, 90 min at 37° C.; normalized to GLP-1; read-out: GLP-1R β Arrestin EC50
GIP receptor [4] = target: T1, GIP receptor; assay: HitHunter cAMP assay, GIP receptor; conditions: for EC50: CHO cells stably expressing GIP receptor, cAMP accumulation, 30 min, read-out: EC50 GIP-1R; for Emax: CHO cells, cAMP, normalized to maximum signal from GIP (high) and DMSO (low), read-out: Emax GIP-1R

SMILES	EC50 (GIP receptor [1]) [nM]	EC50 (GLP-1 receptor [2]) [nM]	Emax (GLP-1 receptor [2]) [%]	EC50 (GLP-1 receptor [3]) [nM]	EC50 (GIP receptor [4]) [nM]	Emax (GIP receptor [4]) [%]
CC[C@H](C)[C@H](NC(=O)[C@H](CC(C)C)NC(=O)[C@H](Cc1c[nH]c2ccccc12)NC(=O)[C@H](CCC(N)=O)NC(=O)[C@@H](NC(=O)[C@H](Cc1ccccc1)NC(=O)[C@H](C)NC(=O)[C@H](CCCCNC(=O)COCCOCCNC(=O)COCCOCCNC(=O)CC[C@H](NC(=O)CCCCCCCCCCCCCCCCCCC(=O)O)C(=O)O)NC(=O)[C@H](CCC(N)=O)NC(=O)[C@H](C)NC(=O)[C@@H](NC(=O)[C@H](CCCCN)NC(=O)[C@H](CC(=O)O)NC(=O)[C@H](CC(C)C)NC(=O)C(C)(C)NC(=O)[C@@H](NC(=O)[C@H](CO)NC(=O)[C@H](Cc1ccc(O)cc1)NC(=O)[C@H](CC(=O)O)NC(=O)[C@H](CO)NC(=O)[C@@H](NC(=O)[C@H](Cc1ccccc1)NC(=O)[C@@H](NC(=O)CNC(=O)[C@H](CCC(=O)O)NC(=O)CCNC(=O)C1(n2cccn2)CCNCC1)[C@@H](C)O)[C@@H](C)O)[C@@H](C)CC)[C@@H](C)CC)C(C)C)C(=O)N[C@@H](C)C(=O)NCC(=O)NCC(=O)N1CCC[C@H]1C(=O)N[C@@H](CO)C(=O)N[C@@H](CO)C(=O)NCC(=O)N[C@@H](C)C(=O)N1CCC[C@H]1C(=O)N1CCC[C@H]1C(=O)N1CCC[C@H]1C(=O)N[C@@H](CO)C(N)=O [Compound 160] ({X28-βAla}-EGTFTSDYSI[Aib]LDKIAQK([AEEA-AEEA-γGlu-C20 diacid])AFVQWLIAGGPSSGAPPPS-NH2)	> 1000	10 to 100	97	> 1000	100 to 1000	94
CC[C@H](C)[C@H](NC(=O)[C@H](CC(C)C)NC(=O)[C@H](Cc1c[nH]c2ccccc12)NC(=O)[C@H](CCC(N)=O)NC(=O)[C@@H](NC(=O)[C@H](Cc1ccccc1)NC(=O)[C@H](C)NC(=O)[C@H](CCCCNC(=O)COCCOCCNC(=O)COCCOCCNC(=O)CC[C@H](NC(=O)CCCCCCCCCCCCCCCCCCC(=O)O)C(=O)O)NC(=O)[C@H](CCC(N)=O)NC(=O)[C@H](C)NC(=O)[C@@H](NC(=O)[C@H](CCCCN)NC(=O)[C@H](CC(=O)O)NC(=O)[C@H](CC(C)C)NC(=O)C(C)(C)NC(=O)[C@@H](NC(=O)[C@H](CO)NC(=O)[C@H](Cc1ccc(O)cc1)NC(=O)[C@H](CC(=O)O)NC(=O)[C@H](CO)NC(=O)[C@@H](NC(=O)[C@H](Cc1ccccc1)NC(=O)[C@@H](NC(=O)CNC(=O)[C@H](CCC(=O)O)NC(=O)CCNC(=O)C(C)(C)c1cncnc1)[C@@H](C)O)[C@@H](C)O)[C@@H](C)CC)[C@@H](C)CC)C(C)C)C(=O)N[C@@H](C)C(=O)NCC(=O)NCC(=O)N1CCC[C@H]1C(=O)N[C@@H](CO)C(=O)N[C@@H](CO)C(=O)NCC(=O)N[C@@H](C)C(=O)N1CCC[C@H]1C(=O)N1CCC[C@H]1C(=O)N1CCC[C@H]1C(=O)N[C@@H](CO)C(N)=O [Compound 161] ({X76-βAla}-EGTFTSDYSI[Aib]LDKIAQK([AEEA-AEEA-γGlu-C20 diacid])AFVQWLIAGGPSSGAPPPS-NH2)	> 1000	0.1 to 1	113	> 1000	10 to 100	94
CC[C@H](C)[C@H](NC(=O)[C@H](CC(C)C)NC(=O)[C@H](Cc1c[nH]c2ccccc12)NC(=O)[C@H](CCC(N)=O)NC(=O)[C@@H](NC(=O)[C@H](Cc1ccccc1)NC(=O)[C@H](C)NC(=O)[C@H](CCCCNC(=O)COCCOCCNC(=O)COCCOCCNC(=O)CC[C@H](NC(=O)CCCCCCCCCCCCCCCCCCC(=O)O)C(=O)O)NC(=O)[C@H](CCC(N)=O)NC(=O)[C@H](C)NC(=O)[C@@H](NC(=O)[C@H](CCCCN)NC(=O)[C@H](CC(=O)O)NC(=O)[C@H](CC(C)C)NC(=O)C(C)(C)NC(=O)[C@@H](NC(=O)[C@H](CO)NC(=O)[C@H](Cc1ccc(O)cc1)NC(=O)[C@H](CC(=O)O)NC(=O)[C@H](CO)NC(=O)[C@@H](NC(=O)[C@H](Cc1ccccc1)NC(=O)[C@@H](NC(=O)CNC(=O)[C@H](CCC(=O)O)NC(=O)CCNC(=O)C(CC)(CC)c1cc(F)cc(C#N)c1)[C@@H](C)O)[C@@H](C)O)[C@@H](C)CC)[C@@H](C)CC)C(C)C)C(=O)N[C@@H](C)C(=O)NCC(=O)NCC(=O)N1CCC[C@H]1C(=O)N[C@@H](CO)C(=O)N[C@@H](CO)C(=O)NCC(=O)N[C@@H](C)C(=O)N1CCC[C@H]1C(=O)N1CCC[C@H]1C(=O)N1CCC[C@H]1C(=O)N[C@@H](CO)C(N)=O [Compound 162] ({X81-βAla}-EGTFTSDYSI[Aib]LDKIAQK([AEEA-AEEA-γGlu-C20 diacid])AFVQWLIAGGPSSGAPPPS-NH2)	< 1000	1 to 10	127	> 1000	1 to 10	113
CC[C@H](C)[C@H](NC(=O)[C@H](CC(C)C)NC(=O)[C@H](Cc1c[nH]c2ccccc12)NC(=O)[C@H](CCC(N)=O)NC(=O)[C@@H](NC(=O)[C@H](Cc1ccccc1)NC(=O)[C@H](C)NC(=O)[C@H](CCCCNC(=O)COCCOCCNC(=O)COCCOCCNC(=O)CC[C@H](NC(=O)CCCCCCCCCCCCCCCCCCC(=O)O)C(=O)O)NC(=O)[C@H](CCC(N)=O)NC(=O)[C@H](C)NC(=O)[C@@H](NC(=O)[C@H](CCCCN)NC(=O)[C@H](CC(=O)O)NC(=O)[C@H](CC(C)C)NC(=O)C(C)(C)NC(=O)[C@@H](NC(=O)[C@H](CO)NC(=O)[C@H](Cc1ccc(O)cc1)NC(=O)[C@H](CC(=O)O)NC(=O)[C@H](CO)NC(=O)[C@@H](NC(=O)[C@H](Cc1ccccc1)NC(=O)[C@@H](NC(=O)CNC(=O)[C@H](CCC(=O)O)NC(=O)CCNC(=O)C(C)(C)c1c(F)cccc1F)[C@@H](C)O)[C@@H](C)O)[C@@H](C)CC)[C@@H](C)CC)C(C)C)C(=O)N[C@@H](C)C(=O)NCC(=O)NCC(=O)N1CCC[C@H]1C(=O)N[C@@H](CO)C(=O)N[C@@H](CO)C(=O)NCC(=O)N[C@@H](C)C(=O)N1CCC[C@H]1C(=O)N1CCC[C@H]1C(=O)N1CCC[C@H]1C(=O)N[C@@H](CO)C(N)=O [Compound 163] ({X69-βAla}-EGTFTSDYSI[Aib]LDKIAQK([AEEA-AEEA-γGlu-C20 diacid])AFVQWLIAGGPSSGAPPPS-NH2)	< 1000	0.1 to 1	104	> 1000	10 to 100	105
CC[C@H](C)[C@H](NC(=O)[C@H](CC(C)C)NC(=O)[C@H](Cc1c[nH]c2ccccc12)NC(=O)[C@H](CCC(N)=O)NC(=O)[C@@H](NC(=O)[C@H](Cc1ccccc1)NC(=O)[C@H](C)NC(=O)[C@H](CCCCNC(=O)COCCOCCNC(=O)COCCOCCNC(=O)CC[C@H](NC(=O)CCCCCCCCCCCCCCCCCCC(=O)O)C(=O)O)NC(=O)[C@H](CCC(N)=O)NC(=O)[C@H](C)NC(=O)[C@@H](NC(=O)[C@H](CCCCN)NC(=O)[C@H](CC(=O)O)NC(=O)[C@H](CC(C)C)NC(=O)C(C)(C)NC(=O)[C@@H](NC(=O)[C@H](CO)NC(=O)[C@H](Cc1ccc(O)cc1)NC(=O)[C@H](CC(=O)O)NC(=O)[C@H](CO)NC(=O)[C@@H](NC(=O)[C@H](Cc1ccccc1)NC(=O)[C@@H](NC(=O)CNC(=O)[C@H](CCC(=O)O)NC(=O)CCNC(=O)C1(c2cc(F)cc(C#N)c2)CCCC1)[C@@H](C)O)[C@@H](C)O)[C@@H](C)CC)[C@@H](C)CC)C(C)C)C(=O)N[C@@H](C)C(=O)NCC(=O)NCC(=O)N1CCC[C@H]1C(=O)N[C@@H](CO)C(=O)N[C@@H](CO)C(=O)NCC(=O)N[C@@H](C)C(=O)N1CCC[C@H]1C(=O)N1CCC[C@H]1C(=O)N1CCC[C@H]1C(=O)N[C@@H](CO)C(N)=O [Compound 164] ({X35-βAla}-EGTFTSDYSI[Aib]LDKIAQK([AEEA-AEEA-γGlu-C20 diacid])AFVQWLIAGGPSSGAPPPS-NH2)	> 1000	1 to 10	112	> 1000	1 to 10	106
